Measured values from publication PMC5352749, “Novel insights into biosynthesis and uptake of rhamnolipids and their precursors” (Applied Microbiology and Biotechnology, 2016).

Experiments:
RhlB = molecular target: T1, RhlB (Pseudomonas aeruginosa, UniProt Q9HYD1); experiment: HPLC-UV of mono-rhamnolipids formed by recombinant P. putida fed HAA; type: cell-based; details: HAA-containing conditioned LB medium (congener mixture, C10-C10 quantified); 30 °C, 24 h; cellular dTDP-L-rhamnose as donor
T1 construct: full-length untagged gene in pVLT33 (native RBS), expressed alone in P. putida KT2440

RhlC = molecular target: T2, RhlC (Pseudomonas aeruginosa, UniProt Q9I4K5); experiment: HPLC-UV of di-rhamnolipids formed by recombinant P. putida fed mono-rhamnolipids; type: cell-based; details: mono-rhamnolipid conditioned LB medium (congener mixture, C10-C10 predominant and quantified); 30 °C, 24 h; cellular dTDP-L-rhamnose as donor
T2 construct: full-length untagged gene in pVLT33 (native RBS), expressed alone in P. putida KT2440
T2 sequence (Q9I4K5 entry or part of it): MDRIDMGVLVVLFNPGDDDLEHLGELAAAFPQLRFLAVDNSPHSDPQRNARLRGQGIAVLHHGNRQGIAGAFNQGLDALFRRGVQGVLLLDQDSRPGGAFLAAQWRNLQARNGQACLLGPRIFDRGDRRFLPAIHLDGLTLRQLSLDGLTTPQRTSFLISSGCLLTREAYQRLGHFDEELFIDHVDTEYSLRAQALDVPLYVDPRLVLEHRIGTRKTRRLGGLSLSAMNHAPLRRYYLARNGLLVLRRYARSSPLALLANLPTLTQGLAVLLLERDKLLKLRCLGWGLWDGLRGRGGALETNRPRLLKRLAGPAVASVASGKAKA

T1 sequence (Q9HYD1 entry or part of it): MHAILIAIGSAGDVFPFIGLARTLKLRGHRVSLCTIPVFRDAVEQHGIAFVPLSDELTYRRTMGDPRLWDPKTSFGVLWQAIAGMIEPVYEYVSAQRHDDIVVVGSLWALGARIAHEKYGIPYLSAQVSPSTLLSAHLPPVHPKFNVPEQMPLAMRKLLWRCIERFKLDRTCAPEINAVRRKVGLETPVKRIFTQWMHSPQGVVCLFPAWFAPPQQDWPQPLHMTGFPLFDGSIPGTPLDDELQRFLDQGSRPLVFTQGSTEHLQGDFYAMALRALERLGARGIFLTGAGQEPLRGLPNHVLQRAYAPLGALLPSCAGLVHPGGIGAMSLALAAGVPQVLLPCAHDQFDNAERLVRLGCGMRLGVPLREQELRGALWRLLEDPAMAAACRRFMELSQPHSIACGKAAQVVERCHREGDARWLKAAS

Structure (SMILES)	HPLC-UV of mono-rhamnolipids formed by recombinant P. putida fed HAA (RhlB)	HPLC-UV of di-rhamnolipids formed by recombinant P. putida fed mono-rhamnolipids (RhlC)
CCCCCCCC(O)CC(=O)OC(CCCCCCC)CC(=O)O (centres unmarked) [C10-C10 (HAA)]	HAAs synthesized by P. putida and provided in the form of the conditioned medium serve	
CCCCCCC[C@H](CC(=O)O)OC(=O)C[C@@H](CCCCCCC)O[C@@H]1O[C@@H](C)[C@H](O)[C@@H](O)[C@H]1O [Rha-C10-C10]		extracellularly provided mono-rhamnolipids were converted to di-rhamnolipids by RhlC in recombinant P. putida
